Here are results for two compounds from ChEMBL document CHEMBL4330164, “Propolis Components from Stingless Bees Collected on South Sulawesi, Indonesia, and Their Xanthine Oxidase Inhibitory Activity” (J Nat Prod, 2019).

This data set addresses Xanthine dehydrogenase/oxidase (Bos taurus, UniProt P80457). Kind of data set: Inhibition of bovine milk xanthine oxidase assessed as reduction in uric acid production using xanthine as substrate after 10 mins by HPLC analysis.

Sequence of Xanthine dehydrogenase/oxidase (P80457 whole entry): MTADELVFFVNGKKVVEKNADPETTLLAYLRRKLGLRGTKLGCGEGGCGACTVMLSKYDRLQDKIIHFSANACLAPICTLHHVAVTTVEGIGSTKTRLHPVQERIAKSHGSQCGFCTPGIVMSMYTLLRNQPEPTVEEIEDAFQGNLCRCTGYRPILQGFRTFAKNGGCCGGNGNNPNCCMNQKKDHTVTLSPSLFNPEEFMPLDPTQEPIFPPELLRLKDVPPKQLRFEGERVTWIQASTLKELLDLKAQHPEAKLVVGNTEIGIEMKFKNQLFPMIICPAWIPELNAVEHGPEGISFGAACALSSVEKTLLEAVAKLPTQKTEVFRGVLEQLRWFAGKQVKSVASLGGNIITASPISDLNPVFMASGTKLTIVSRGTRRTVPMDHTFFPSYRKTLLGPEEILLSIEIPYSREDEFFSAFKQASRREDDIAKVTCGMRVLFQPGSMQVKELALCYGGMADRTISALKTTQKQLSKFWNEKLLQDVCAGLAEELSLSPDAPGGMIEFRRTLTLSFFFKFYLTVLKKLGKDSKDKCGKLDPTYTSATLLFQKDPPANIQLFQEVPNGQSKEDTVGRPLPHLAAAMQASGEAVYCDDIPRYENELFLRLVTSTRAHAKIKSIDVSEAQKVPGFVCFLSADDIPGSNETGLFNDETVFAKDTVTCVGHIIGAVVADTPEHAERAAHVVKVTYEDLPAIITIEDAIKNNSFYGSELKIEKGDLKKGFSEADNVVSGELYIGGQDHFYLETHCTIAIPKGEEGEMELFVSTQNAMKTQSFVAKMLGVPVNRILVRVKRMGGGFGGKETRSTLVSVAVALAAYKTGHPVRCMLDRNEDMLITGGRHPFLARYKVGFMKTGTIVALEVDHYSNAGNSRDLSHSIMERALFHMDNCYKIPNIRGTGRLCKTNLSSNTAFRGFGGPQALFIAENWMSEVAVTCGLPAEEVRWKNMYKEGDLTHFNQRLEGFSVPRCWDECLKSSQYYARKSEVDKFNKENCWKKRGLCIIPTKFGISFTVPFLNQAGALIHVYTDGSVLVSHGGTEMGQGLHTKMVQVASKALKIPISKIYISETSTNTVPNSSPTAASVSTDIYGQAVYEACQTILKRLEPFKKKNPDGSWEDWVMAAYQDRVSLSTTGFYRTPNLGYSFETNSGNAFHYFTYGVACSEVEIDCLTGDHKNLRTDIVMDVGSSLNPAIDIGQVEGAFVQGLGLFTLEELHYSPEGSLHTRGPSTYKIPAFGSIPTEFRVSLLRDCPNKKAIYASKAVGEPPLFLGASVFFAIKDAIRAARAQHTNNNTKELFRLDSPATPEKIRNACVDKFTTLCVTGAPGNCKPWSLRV

In the case of `COc1cc([C@@H]2c3c(cc4c(c3OC)OCO4)C[C@@H]3COC[C@H]32)cc2c1OCO2`, the “inhibition (INH)” value (cattle, 10 min) was “Active”.

By IC50 is commonly meant the concentration that inhibits the measured activity by half. With `COc1cc(-c2c(O)c(=O)oc3cc(O)cc(O)c23)ccc1O`, the IC50 came out at 3.9 µM.
